ChEMBL document CHEMBL2074260, “Role of breast cancer resistance protein in the bioavailability and fetal penetration of topotecan” (J Natl Cancer Inst, 2000)
Blank lines part the entries; values can stand above or below the compound they belong to.

Tests used:
Format in all cases: functional, cell-based
[1] = molecular target: T1, Broad substrate specificity ATP-binding cassette transporter ABCG2 (Mus musculus, UniProt Q7TMS5); experiment: TP_TRANSPORTER: inhibition of Topotecan transepithelial transport (basal to apical) in Bcrp1-expressing LLC-PK1 cells; conditions: pig
T1 sequence (Q7TMS5 whole entry): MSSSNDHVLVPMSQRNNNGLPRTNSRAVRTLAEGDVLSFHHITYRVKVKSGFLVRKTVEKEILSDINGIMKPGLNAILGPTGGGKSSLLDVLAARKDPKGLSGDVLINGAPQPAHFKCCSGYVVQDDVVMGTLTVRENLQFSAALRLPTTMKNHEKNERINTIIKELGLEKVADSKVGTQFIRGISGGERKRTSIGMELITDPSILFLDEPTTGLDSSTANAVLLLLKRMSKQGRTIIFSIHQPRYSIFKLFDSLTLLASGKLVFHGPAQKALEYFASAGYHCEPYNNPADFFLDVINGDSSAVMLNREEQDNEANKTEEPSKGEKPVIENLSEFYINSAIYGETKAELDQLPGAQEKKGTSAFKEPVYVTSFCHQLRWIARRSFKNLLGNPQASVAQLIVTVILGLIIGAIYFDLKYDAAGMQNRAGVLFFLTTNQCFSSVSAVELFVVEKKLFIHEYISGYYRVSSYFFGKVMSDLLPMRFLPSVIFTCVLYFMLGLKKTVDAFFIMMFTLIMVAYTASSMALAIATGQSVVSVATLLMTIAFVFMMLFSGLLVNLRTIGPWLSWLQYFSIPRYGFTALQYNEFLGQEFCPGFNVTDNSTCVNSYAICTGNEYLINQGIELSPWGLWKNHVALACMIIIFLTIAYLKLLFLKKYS

[2] = molecular target: T1, Broad substrate specificity ATP-binding cassette transporter ABCG2; experiment: TP_TRANSPORTER: inhibition of Topotecan transepithelial transport (basal to apical)(Topotecan: 10uM, GF120918:10uM) in Bcrp1-expressing LLC-PK1 cells; conditions: pig, llc-pk1, 10 µM
[3] = molecular target: T1, Broad substrate specificity ATP-binding cassette transporter ABCG2; experiment: TP_TRANSPORTER: transepithelial transport (basal to apical) in Bcrp1-expressing LLC-PK1 cells; conditions: pig

- Activity [1]: is not an inhibitor [-]
Structure (SMILES): C/C=C/C[C@@H](C)C(=O)[C@H]1C(=O)N[C@@H](C(C)C)C(=O)N(C)CC(=O)N(C)[C@@H](CC(C)C)C(=O)N[C@@H](C(C)C)C(=O)N(C)[C@@H](CC(C)C)C(=O)N[C@@H](C)C(=O)N[C@H](C)C(=O)N(C)[C@@H](CC(C)C)C(=O)N(C)[C@@H](CC(C)C)C(=O)N(C)[C@@H](C(C)C)C(=O)N1C [VALSPODAR]

- Activity [2]: inhibitor [+]
Structure (SMILES): COc1cc2c(cc1OC)CN(CCc1ccc(NC(=O)c3cccc4c(=O)c5cccc(OC)c5[nH]c34)cc1)CC2.Cl [ELACRIDAR HYDROCHLORIDE]

- Activity [3]: substrate [+]
Structure (SMILES): CC[C@@]1(O)C(=O)OCc2c1cc1n(c2=O)Cc2cc3c(CN(C)C)c(O)ccc3nc2-1 [TOPOTECAN]
